A value given as a limit tells only on which side of the number the result lay.

The term IC50 denotes the point on the concentration scale where inhibition reaches its midpoint. The low end stands for higher potency, the high end for lower potency. What is called inhibition is the share of the control response that was lost under treatment.

The first data set concerns NCI/ADR-RES. The data set is described as follows: Potentiation of adriamycin-induced antiproliferative activity against human MCF7/ADR cells assessed as fold reduction in adriamycin IC50 at 5 uM measured after 48 hrs by MTT assay. In kind it is functional.
Conditions: not given
Background: Formazan colour is commonly taken as a measure of viable cells.
As for `COc1ccc2[nH]cc(C(=O)OC3O[C@@H]4O[C@@]5(C)CC[C@H]6[C@H](C)CC[C@@H]([C@H]3C)[C@@]46OO5)c2c1` (stereo partly specified), the “fold change (FC)” value is 71.89.

Consider `C[C@H]1[C@H](OC(=O)CCC(=O)OCCn2cc(C#N)nc2Cl)O[C@@H]2O[C@@]3(C)CC[C@H]4[C@H](C)CC[C@@H]1[C@@]24OO3`, for which the “fold change (FC)” value is 9.24.

Turning to `C[C@H]1[C@H](OC(=O)CCC(=O)OCCCCn2ccnc2[N+](=O)[O-])O[C@@H]2O[C@@]3(C)CC[C@H]4[C@H](C)CC[C@@H]1[C@@]24OO3`, the “fold change (FC)” value is given as 14.71.

As for `COc1ccc(CCN(C)CCCC(C#N)(c2ccc(OC)c(OC)c2)C(C)C)cc1OC` (stereo unspecified), the “fold change (FC)” value was 39.62.

`C[C@H]1[C@H](OC(=O)CCC(=O)OCCn2cnc(Br)c2)O[C@@H]2O[C@@]3(C)CC[C@H]4[C@H](C)CC[C@@H]1[C@@]24OO3`: the “fold change (FC)” value was 6.37.

`C[C@H]1[C@H](OC(=O)CCC(=O)OCCCn2cnc(C#N)c2C#N)O[C@@H]2O[C@@]3(C)CC[C@H]4[C@H](C)CC[C@@H]1[C@@]24OO3`: the “fold change (FC)” value came to 4.37.

The subject of a further data set is L02. The data set is described as follows: Cytotoxicity against human L02 cells measured after 48 hrs by MTT assay. In kind it is cell-based. Conditions: L02, 48 h.
The molecule `COc1ccc2[nH]cc(C(=O)OC3O[C@@H]4O[C@@]5(C)CC[C@H]6[C@H](C)CC[C@@H]([C@H]3C)[C@@]46OO5)c2c1` (stereo partly specified) displayed an IC50 of 36.4 µM.

For the molecule `C[C@H]1[C@H](OC(=O)CCC(=O)OCCn2cc(C#N)nc2Cl)O[C@@H]2O[C@@]3(C)CC[C@H]4[C@H](C)CC[C@@H]1[C@@]24OO3`, the IC50 came out at 61.2 µM.

For `C[C@H]1[C@H](OC(=O)CCC(=O)OCCCCn2ccnc2[N+](=O)[O-])O[C@@H]2O[C@@]3(C)CC[C@H]4[C@H](C)CC[C@@H]1[C@@]24OO3`, the midpoint of inhibition, the IC50, lay at 45.7 µM.

Molecule `C[C@H]1[C@H](OC(=O)CCC(=O)OCCn2cnc(Br)c2)O[C@@H]2O[C@@]3(C)CC[C@H]4[C@H](C)CC[C@@H]1[C@@]24OO3` showed an IC50 of 66.9 µM.

With `C[C@H]1[C@H](OC(=O)CCC(=O)OCCCn2cnc(C#N)c2C#N)O[C@@H]2O[C@@]3(C)CC[C@H]4[C@H](C)CC[C@@H]1[C@@]24OO3`, the IC50 was 66.2 µM.

System in a further data set: not listed separately
As to the kind of experiment: Toxicity in human MCF7 cells assessed as inhibition of cell proliferation at 5 uM measured after 48 hrs by MTT assay. In kind it is cell-based.
Conditions: not given
With `COc1ccc2[nH]cc(C(=O)OC3O[C@@H]4O[C@@]5(C)CC[C@H]6[C@H](C)CC[C@@H]([C@H]3C)[C@@]46OO5)c2c1` (stereo partly specified), the inhibition at 48 h, 5 µM amounted to 19.8%.

Turning to `C[C@H]1[C@H](OC(=O)CCC(=O)OCCn2cc(C#N)nc2Cl)O[C@@H]2O[C@@]3(C)CC[C@H]4[C@H](C)CC[C@@H]1[C@@]24OO3`, the inhibition at 48 h, 5 µM is 21.3%.

As for `C[C@H]1[C@H](OC(=O)CCC(=O)OCCCCn2ccnc2[N+](=O)[O-])O[C@@H]2O[C@@]3(C)CC[C@H]4[C@H](C)CC[C@@H]1[C@@]24OO3`, the inhibition at 48 h, 5 µM turned out to be 19.8%.

With `C[C@H]1[C@H](OC(=O)CCC(=O)OCCn2cnc(Br)c2)O[C@@H]2O[C@@]3(C)CC[C@H]4[C@H](C)CC[C@@H]1[C@@]24OO3`, the inhibition at 48 h, 5 µM was 12.4%.

Regarding `C[C@H]1[C@H](OC(=O)CCC(=O)OCCCn2cnc(C#N)c2C#N)O[C@@H]2O[C@@]3(C)CC[C@H]4[C@H](C)CC[C@@H]1[C@@]24OO3`, the inhibition at 48 h, 5 µM was 15%.

For a further data set, the system named is MDA-MB-231. As to the kind of experiment: Antiproliferative activity against human MDA-MB-231 cells measured after 48 hrs by MTT assay. In kind it is functional, cell-based. To be noted: MDA-MB-231, 48 h.
`COc1ccc2[nH]cc(C(=O)OC3O[C@@H]4O[C@@]5(C)CC[C@H]6[C@H](C)CC[C@@H]([C@H]3C)[C@@]46OO5)c2c1` (stereo partly specified) displayed a concentration for half-maximal inhibition (IC50) of 70.4 µM. This counts as double-digit micromolar.

`C[C@H]1[C@H](OC(=O)CCC(=O)OCCn2cc(C#N)nc2Cl)O[C@@H]2O[C@@]3(C)CC[C@H]4[C@H](C)CC[C@@H]1[C@@]24OO3` displayed an IC50 of 66.4 µM. This IC50 and that of the molecule before are within 1.5-fold of each other.

With `C[C@H]1[C@H](OC(=O)CCC(=O)OCCCCn2ccnc2[N+](=O)[O-])O[C@@H]2O[C@@]3(C)CC[C@H]4[C@H](C)CC[C@@H]1[C@@]24OO3`, the midpoint of inhibition, the IC50, lay at 85.2 µM.

As to `C[C@H]1[C@H](OC(=O)CCC(=O)OCCn2cnc(Br)c2)O[C@@H]2O[C@@]3(C)CC[C@H]4[C@H](C)CC[C@@H]1[C@@]24OO3`, the IC50 is over 100 µM.

Regarding `C[C@H]1[C@H](OC(=O)CCC(=O)OCCCn2cnc(C#N)c2C#N)O[C@@H]2O[C@@]3(C)CC[C@H]4[C@H](C)CC[C@@H]1[C@@]24OO3`, the 50% inhibitory concentration (IC50) is 93.2 µM.

For another data set, the system named is A549. The data set is described as follows: Antiproliferative activity against human A549 cells measured after 48 hrs by MTT assay. In kind it is functional, cell-based. Conditions: A549, 48 h.
The molecule `COc1ccc2[nH]cc(C(=O)OC3O[C@@H]4O[C@@]5(C)CC[C@H]6[C@H](C)CC[C@@H]([C@H]3C)[C@@]46OO5)c2c1` (stereo partly specified) came in with an IC50 of 13.4 µM.

`C[C@H]1[C@H](OC(=O)CCC(=O)OCCn2cc(C#N)nc2Cl)O[C@@H]2O[C@@]3(C)CC[C@H]4[C@H](C)CC[C@@H]1[C@@]24OO3` came in with an IC50 of 20.7 µM.

The molecule `C[C@H]1[C@H](OC(=O)CCC(=O)OCCCCn2ccnc2[N+](=O)[O-])O[C@@H]2O[C@@]3(C)CC[C@H]4[C@H](C)CC[C@@H]1[C@@]24OO3` had an IC50 of 16.5 µM.

As for `C[C@H]1[C@H](OC(=O)CCC(=O)OCCn2cnc(Br)c2)O[C@@H]2O[C@@]3(C)CC[C@H]4[C@H](C)CC[C@@H]1[C@@]24OO3`, the 50% inhibitory concentration (IC50) was 24.7 µM. The IC50 values of the last two molecules are within 1.5-fold of each other.

In turn, `C[C@H]1[C@H](OC(=O)CCC(=O)OCCCn2cnc(C#N)c2C#N)O[C@@H]2O[C@@]3(C)CC[C@H]4[C@H](C)CC[C@@H]1[C@@]24OO3` registered an IC50 of 26.7 µM. This IC50 and that of the molecule before are within 1.5-fold of each other.

The test system of the next data set is MCF7. The data set is described as follows: Antiproliferative activity against human MCF7 cells measured after 48 hrs by MTT assay. In kind it is functional, cell-based. To be noted: MCF7, 48 h.
The molecule `COc1ccc2[nH]cc(C(=O)OC3O[C@@H]4O[C@@]5(C)CC[C@H]6[C@H](C)CC[C@@H]([C@H]3C)[C@@]46OO5)c2c1` (stereo partly specified) had an IC50 of 14.5 µM.

As to `C[C@H]1[C@H](OC(=O)CCC(=O)OCCn2cc(C#N)nc2Cl)O[C@@H]2O[C@@]3(C)CC[C@H]4[C@H](C)CC[C@@H]1[C@@]24OO3`, the IC50 was 17.5 µM.

Turning to `C[C@H]1[C@H](OC(=O)CCC(=O)OCCCCn2ccnc2[N+](=O)[O-])O[C@@H]2O[C@@]3(C)CC[C@H]4[C@H](C)CC[C@@H]1[C@@]24OO3`, the half-maximal inhibitory concentration (IC50) is 9.78 µM.

In the case of `C[C@H]1[C@H](OC(=O)CCC(=O)OCCn2cnc(Br)c2)O[C@@H]2O[C@@]3(C)CC[C@H]4[C@H](C)CC[C@@H]1[C@@]24OO3`, the IC50 was 13.1 µM.

Molecule `C[C@H]1[C@H](OC(=O)CCC(=O)OCCCn2cnc(C#N)c2C#N)O[C@@H]2O[C@@]3(C)CC[C@H]4[C@H](C)CC[C@@H]1[C@@]24OO3` registered a half-maximal inhibitory concentration (IC50) of 16.2 µM. The IC50 values of the last two molecules are within 1.5-fold of each other.

For the next data set, the system named is HepG2. The data set is described as follows: Antiproliferative activity against human HepG2 cells measured after 48 hrs by MTT assay. Conditions: HepG2, 48 h. In kind it is functional, cell-based.
As for `COc1ccc2[nH]cc(C(=O)OC3O[C@@H]4O[C@@]5(C)CC[C@H]6[C@H](C)CC[C@@H]([C@H]3C)[C@@]46OO5)c2c1` (stereo partly specified), half-maximal inhibition (IC50) required 27.7 µM.

In turn, `C[C@H]1[C@H](OC(=O)CCC(=O)OCCn2cc(C#N)nc2Cl)O[C@@H]2O[C@@]3(C)CC[C@H]4[C@H](C)CC[C@@H]1[C@@]24OO3` had a 50% inhibitory concentration (IC50) of 44.3 µM.

As for `C[C@H]1[C@H](OC(=O)CCC(=O)OCCCCn2ccnc2[N+](=O)[O-])O[C@@H]2O[C@@]3(C)CC[C@H]4[C@H](C)CC[C@@H]1[C@@]24OO3`, the IC50 was 21.2 µM.

`C[C@H]1[C@H](OC(=O)CCC(=O)OCCn2cnc(Br)c2)O[C@@H]2O[C@@]3(C)CC[C@H]4[C@H](C)CC[C@@H]1[C@@]24OO3` gave an IC50 of 31.9 µM.

As for `C[C@H]1[C@H](OC(=O)CCC(=O)OCCCn2cnc(C#N)c2C#N)O[C@@H]2O[C@@]3(C)CC[C@H]4[C@H](C)CC[C@@H]1[C@@]24OO3`, the IC50 was over 50 µM.

For the origin of these results see ChEMBL document CHEMBL4316608, “Artemisinin-indole and artemisinin-imidazole hybrids: Synthesis, cytotoxic evaluation and reversal effects on multidrug resistance in MCF-7/ADR cells” (Bioorg Med Chem Lett, 2019).
